Results taken from paper PMC10178769, “A Facile Synthesis and Molecular Characterization of Certain New Anti-Proliferative Indole-Based Chemical Entities” (International Journal of Molecular Sciences, 2023).

Tests used:
[1] = tested on: MCF-7 breast cancer cells; assay: MTT assay, antiproliferative activity, MCF-7; assay type: cell-based; conditions: Homo sapiens, MCF7, 48 h, read-out: Cytotoxicity IC50 MCF7
Procedure: (§1) The cancer cell growth inhibitory activity of the synthesized compound was tested against three human cancer cell lines, namely, breast cancer (MCF-7), colon cancer (HCT116) and lung cancer (A549), as well as non-tumorigenic human lung cell line (WI38) to estimate the selectivity for tumor cells.
(§2) Anti-proliferative activity in compounds 4a–q were tested in three cancerous cell lines (MCF-7 breast cancer cells, A549 lung carcinoma, HCT human colon cancer cells) and in WI-38 human lung fibroblast cells. Cells were plated at a density of 1.2–1.8 × 10,000 cells/well in a volume of 100 µL complete growth medium and were incubated at 37 °C for 24 h. Cells were then treated with serially diluted tested compound and incubated at 37 °C for 48 h. Twenty microliters of 3-(4,5-dimethylthiazol-2-yl)-2,5-diphenyltetrazolium bromide (MTT) (2.5 mg/mL) dissolved in PBS were added to the cells and cells were further incubated for 4 h at 37 °C. To dissolve formazan crystals, MTT solutions were completely removed and 100 μL DMSO was added. The absorbance was detected at 540 nm using a Spectramax 250 microplate reader (Molecular device, San Jose, CA, USA), and viability (%) was calculated as [optical density (OD) of treated group/OD of control group] × 100.

[2] = tested on: HCT116 colon cancer cells; assay: MTT assay, antiproliferative activity, HCT116; assay type: cell-based; conditions: Homo sapiens, HCT-116, 48 h, read-out: Cytotoxicity IC50 HCT116
Procedure: as §1, §2

[3] = tested on: A549 lung carcinoma cells; assay: MTT assay, antiproliferative activity, A549; assay type: cell-based; conditions: Homo sapiens, 48 h, read-out: Cytotoxicity IC50 A549
Procedure: as §1, §2

[4] = MTT assay, toxicity on normal cells WI38; assay type: cell-based, human; conditions: WI-38 lung fibroblast cells (non-tumorigenic); MTT, 48 h, non-tumorigenic human lung cell line; read-out: Cytotoxicity IC50 WI38
Procedure: as §1, §2

[5] = tested on: WI-38 human lung fibroblast cells; assay: MTT assay, toxicity on normal cells WI38; assay type: cell-based; conditions: WI38 versus cancer cells
Procedure: as §1, §2

[6] = tested on: MCF-7 cells; assay: Annexin V-FITC apoptosis flow cytometry; assay type: cell-based, human; conditions: 10 μm, 48 h
Procedure: To detect the apoptotic potential of our compound of choice, 4e, an Annexin V-FITC Apoptosis Detection Kit (BioVision, Mountain View, CA, USA) was used based on the manufacturer’s protocol using a dose of 10 μm for 48 h.

[7] = tested on: MCF-7 cells; assay: Cell cycle analysis, propidium iodide flow cytometry; assay type: cell-based, human; conditions: 10 µm, 48 h, control 34.72%
Procedure: To evaluate if the antiproliferative effect of 4e was due to the disturbance of the cell cycle, cells were treated with 10 µm for 48 h. […] Therefore, it is possible that the antiproliferative effect of 4e is due to S-phase cell cycle arrest.
To detect cell cycle status after treating cells with 4e, 1 × 10^6 cells were cultured in six-well plates for twenty-four hours per cell and were then treated with 10 μm of 4e for 48 h. Cells were then washed with phosphate-buffered saline. Cells were then fixed with 70% of cold ethanol and kept at 4 °C overnight. Cell analysis was then analyzed following the manifacorere protocol, using a Propidium Iodide Flow Cytometry Kit for Cell Cycle Analysis (Abcam, Waltham, MA, USA).

[8] = tested on: MCF-7, A549, and HCT; assay: MTT assay, cytotoxicity over the three cancer cell lines; assay type: cell-based; conditions: Homo sapiens, average over MCF-7, HCT116, A549, 48 h
Procedure: as §1, with “The title compounds 4a–q were subjected to MTT assay to determine their cytotoxicity, and their in vitro antiproliferative activity was examined as well. The” for “The”, “cells. Staurosporine was used as a reference drug.” for “cells.”
as §2, with “To dissolve formazan crystals, MTT solutions were completely removed and 100 μL DMSO was added.” left out

SMILES	IC50 [1]	IC50 [2]	IC50 [3]	IC50 at 48 h [4]	melting point	selectivity against non-tumorigenic cell line (WI38) (in words) [5]	Annexin-V and 7-AAD positive cell populations [6]	cell population in the S phase [7]	IC50 [8]
COc1ccc2[nH]c(C(=O)N(N)Cc3ccc([N+](=O)[O-])cc3)cc2c1 [4p, N-(4-Nitrobenzyl)-5-methoxy-1H-indole-2-carbohydrazide]	7.01 ± 0.34 µM	19.4 ± 0.93 µM	3.02 ± 0.16 µM	17.4 ± 0.99 µM	213 °C				
COc1ccc2[nH]c(C(=O)N(N)Cc3ccc(Cl)cc3)cc2c1 [4b, N-(4-Chlorobenzyl)-5-methoxy-1H-indole-2-carbohydrazide]	11.5 ± 0.55 µM	190 ± 9.12 µM	49.2 ± 2.68 µM	163 ± 9.25 µM	225 °C				
COc1ccc2[nH]c(C(=O)N(N)Cc3cc(C(F)(F)F)cc(C(F)(F)F)c3)cc2c1 [4f, N-(3,5-Bis(trifluoromethyl)benzyl)-5-methoxy-1H-indole-2-carbohydrazide]	58.1 ± 2.78 µM	9.79 ± 0.47 µM	8.33 ± 0.45 µM	24.4 ± 1.38 µM	195 °C				
NN(Cc1ccc(C(F)(F)F)cc1)C(=O)c1cc2ccccc2[nH]1 [4i, N-(4-(Trifluoromethyl)benzyl)-1H-indole-2-carbohydrazide]	23.9 ± 1.15 µM	52.2 ± 2.5 µM	11.6 ± 0.63 µM	25.3 ± 1.43 µM	190 °C				
COc1ccc2[nH]c(C(=O)N(N)Cc3ccc(C#N)cc3)cc2c1 [4l, N-(4-Cyanobenzyl)-5-methoxy-1H-indole-2-carbohydrazide]	81.4 ± 3.9 µM	5.02 ± 0.24 µM	26.6 ± 1.45 µM	18.5 ± 1.05 µM	248 °C				
NN(Cc1ccc(Cl)cc1)C(=O)c1cc2ccccc2[nH]1 [4a, N-(4-Chlorobenzyl)-1H-indole-2-carbohydrazide]	21.7 ± 1.04 µM	41.3 ± 1.98 µM	5.9 ± 0.32 µM	66.2 ± 3.75 µM	233 °C				
NN(Cc1ccccc1)C(=O)c1cc2ccccc2[nH]1 [4c, N-Benzyl-1H-indole-2-carbohydrazide]	62 ± 2.97 µM	32.5 ± 1.56 µM	25.3 ± 1.38 µM	50.4 ± 2.86 µM	237 °C				
NN(Cc1cc(C(F)(F)F)cc(C(F)(F)F)c1)C(=O)c1cc2ccccc2[nH]1 [4e, N-(3,5-Bis(trifluoromethyl)benzyl)-1H-indole-2-carbohydrazide]	0.57 ± 0.03 µM	1.95 ± 0.09 µM	3.49 ± 0.19 µM	87.2 ± 4.94 µM	204 °C	exhibited selectivity toward cancer cells	significant increase	48.72%	2 µM
COc1ccc2[nH]c(C(=O)N(N)Cc3ccc(C)cc3)cc2c1 [4q, N-(4-Methylbenzyl)-5-methoxy-1H-indole-2-carbohydrazide]	1.01 ± 0.05 µM	6.45 ± 0.31 µM	2.4 ± 0.13 µM	56.2 ± 3.18 µM	166 °C				3.28 ± 2.3 µM
COc1ccc2[nH]c(C(=O)N(N)Cc3ccccc3)cc2c1 [4d, N-Benzyl-5-methoxy-1H-indole-2-carbohydrazide]	3.23 ± 0.16 µM	66.2 ± 3.17 µM	5.69 ± 0.31 µM	95.2 ± 5.39 µM	210 °C				
NN(Cc1ccc(Br)cc1)C(=O)c1cc2ccccc2[nH]1 [4m, N-(4-Bromobenzyl)-1H-indole-2-carbohydrazide]	62.9 ± 3.01 µM	17.5 ± 0.84 µM	12.9 ± 0.7 µM	46.1 ± 2.61 µM	238 °C				
COc1ccc2[nH]c(C(=O)N(N)Cc3ccc(Br)cc3)cc2c1 [4n, N-(4-Bromobenzyl)-5-methoxy-1H-indole-2-carbohydrazide]	141 ± 6.74 µM	61 ± 2.92 µM	16.7 ± 0.91 µM	252 ± 14.3 µM	228 °C				
NN(Cc1ccc(F)cc1)C(=O)c1cc2ccccc2[nH]1 [4g, N-(4-Fluorobenzyl)-1H-indole-2-carbohydrazide]	8.31 ± 0.4 µM	12.3 ± 0.59 µM	17 ± 0.93 µM	117 ± 6.65 µM	209 °C				
COc1ccc2[nH]c(C(=O)N(N)Cc3ccc(C(F)(F)F)cc3)cc2c1 [4j, N-(4-(Trifluoromethyl)benzyl)-5-methoxy-1H-indole-2-carbohydrazide]	3.27 ± 0.16 µM	9.16 ± 0.44 µM	6.78 ± 0.37 µM	97.9 ± 5.54 µM	220 °C				
COc1ccc2[nH]c(C(=O)N(N)Cc3ccc(F)cc3)cc2c1 [4h, N-(4-Fluorobenzyl)-5-methoxy-1H-indole-2-carbohydrazide]	13.1 ± 0.63 µM	207 ± 9.94 µM	23.9 ± 1.3 µM	64.1 ± 3.63 µM	175 °C				
N#Cc1ccc(CN(N)C(=O)c2cc3ccccc3[nH]2)cc1 [4k, N-(4-Cyanobenzyl)-1H-indole-2-carbohydrazide]	9.21 ± 0.44 µM	39.1 ± 1.88 µM	2.65 ± 0.14 µM	30.8 ± 1.74 µM	202 °C				
NN(Cc1ccc([N+](=O)[O-])cc1)C(=O)c1cc2ccccc2[nH]1 [4o, N-(4-Nitrobenzyl)-1H-indole-2-carbohydrazide]	3.66 ± 0.18 µM	2.41 ± 0.12 µM	22.3 ± 1.21 µM	86 ± 4.87 µM	223 °C				
